# In patent US7700604B2, “Hydantoin derivatives as metalloproteinase inhibitors” (AstraZeneca AB, priority 2004, dated 2010):
# Assays:
# Assay type in all cases: biochemical
# [1] = biological target: T1, Recombinant human MMP12 catalytic domain (Homo sapiens, UniProt P39900); test: Isolated enzyme assay MMP12 (fluorogenic substrate); details: substrate Mca-Pro-Cha-Gly-Nva-His-Ala-Dpa-NH2 10 μM, 60 minutes at room temperature, pH 7.3, read-out: hMMP12 IC50
# T1 construct: Recombinant human MMP12 catalytic domain; made in house
# T1 sequence (P39900 106-263 limits assumed): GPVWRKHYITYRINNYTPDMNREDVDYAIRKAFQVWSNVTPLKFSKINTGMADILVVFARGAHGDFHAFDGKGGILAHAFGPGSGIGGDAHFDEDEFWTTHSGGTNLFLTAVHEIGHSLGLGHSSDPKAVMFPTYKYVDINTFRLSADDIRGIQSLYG
# Procedure: Recombinant human MMP12 catalytic domain may be expressed and purified as described by Parkar A. A. et al, (2000), Protein Expression and Purification, 20, 152. The purified enzyme can be used to monitor inhibitors of activity as follows: MMP12 (50 ng/ml final concentration) is incubated for 60 minutes at room temperature with the synthetic substrate Mca-Pro-Cha-Gly-Nva-His-Ala-Dpa-NH2 (10 μM) in assay buffer (0.1M “Tris-HCl” (trade mark) buffer, pH 7.3 containing 0.1M NaCl, 20 mM CaCl2, 0.020 mM ZnCl and 0.05% (w/v) “Brij 35” (trade mark) detergent) in the presence (10 concentrations) or absence of inhibitors. Activity is determined by measuring the fluorescence at λex 320 nm and λem 405 nm. Percent inhibition is calculated as follows: % Inhibition is equal to the [Fluorescenceplus inhibitor−Fluorescencebackground] divided by the [Fluorescenceminus inhibitor−Fluorescencebackground]. MMP8
# [2] = biological target: T2, Recombinant human MMP14 catalytic domain (Homo sapiens, UniProt P50281); test: Isolated enzyme assay MMP14 (fluorogenic substrate); details: substrate Mca-Pro-Cha-Gly-Nva-His-Ala-Dpa-NH2 10 μM, 60 minutes at room temperature, pH 7.5, read-out: hMMP14 IC50
# T2 construct: Recombinant human MMP14 catalytic domain; made in house
# Procedure: Recombinant human MMP14 catalytic domain may be expressed and purified as described by Parkar A. A. et al, (2000), Protein Expression and Purification, 20, 152. The purified enzyme can be used to monitor inhibitors of activity as follows: MMP14 (10 ng/ml final concentration) is incubated for 60 minutes at room temperature with the synthetic substrate Mca-Pro-Cha-Gly-Nva-His-Ala-Dpa-NH2 (10 μM) in assay buffer (0.1M “Tris-HCl” (trade mark) buffer, pH 7.5 containing 0.1M NaCl, 20 mM CaCl2, 0.020 mM ZnCl and 0.05% (w/v) “Brij 35” (trade mark) detergent) in the presence (5 concentrations) or absence of inhibitors. Activity is determined by measuring the fluorescence at λex 320 nm and λem 405 nm. Percent inhibition is calculated as follows: % Inhibition is equal to the [Fluorescenceplus inhibitor−Fluorescencebackground] divided by the [Fluorescenceminus inhibitor−Fluorescencebackground].
# [3] = biological target: T3, Recombinant human MMP9 catalytic domain (Homo sapiens, UniProt P14780); test: Isolated enzyme assay MMP9 (fluorogenic substrate); details: substrate Mca-Pro-Cha-Gly-Nva-His-Ala-Dpa-NH2 5 μM, 30 minutes at RT, pH 7.3, read-out: hMMP9 IC50
# T3 sequence (P14780 with tags, fused parts or gaps DEL216-390): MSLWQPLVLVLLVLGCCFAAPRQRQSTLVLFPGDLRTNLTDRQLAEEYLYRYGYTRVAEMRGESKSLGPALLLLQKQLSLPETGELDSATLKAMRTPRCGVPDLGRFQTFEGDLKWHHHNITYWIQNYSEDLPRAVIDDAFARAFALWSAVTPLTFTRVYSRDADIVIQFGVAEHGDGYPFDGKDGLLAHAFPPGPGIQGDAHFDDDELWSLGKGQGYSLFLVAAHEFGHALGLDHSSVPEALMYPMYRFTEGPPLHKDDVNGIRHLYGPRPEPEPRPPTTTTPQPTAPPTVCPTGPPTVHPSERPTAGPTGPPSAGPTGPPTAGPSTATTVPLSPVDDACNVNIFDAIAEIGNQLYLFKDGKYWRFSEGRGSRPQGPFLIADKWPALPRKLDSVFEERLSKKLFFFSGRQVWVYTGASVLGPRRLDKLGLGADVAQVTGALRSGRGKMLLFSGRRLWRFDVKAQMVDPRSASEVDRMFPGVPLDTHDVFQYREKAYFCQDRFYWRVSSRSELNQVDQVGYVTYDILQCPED
# Procedure: Recombinant human MMP9 catalytic domain was expressed and then purified by Zn chelate column chromatography followed by hydroxamate affinity column chromatography. The enzyme can be used to monitor inhibitors of activity as follows: MMP9 (5 ng/ml final concentration) is incubated for 30 minutes at RT with the synthetic substrate Mca-Pro-Cha-Gly-Nva-His-Ala-Dpa-NH2 (5 μM) in assay buffer (0.1M “Tris-HCl” (trade mark) buffer, pH 7.3 containing 0.1M NaCl, 20 mM CaCl2, 0.020 mM ZnCl and 0.05% (w/v) “Brij 35” (trade mark) detergent) in the presence (10 concentrations) or absence of inhibitors. Activity is determined by measuring the fluorescence at λex 320 nm and λem 405 nm. Percent inhibition is calculated as follows: % Inhibition is equal to the [Fluorescenceplus inhibitor−Fluorescencebackgound] divided by the [Fluorescenceminus inhibitor−Fluorescencebackground]. […]
IC50 [1],IC50 [2],IC50 [3],Compound
10.4 nM,> 10000 nM,29.3 nM,"C[C@]1(CS(=O)(=O)N2CCc3cc(-c4cnc(C(F)(F)F)nc4)ccc3C2)NC(=O)NC1=O [Example 1, (5)-5-Methyl-5-({[6-[2-(trifluoromethyl)pyrimidin-5-yl]-3,4-dihydroisoquinolin-2(1H)-yl]sulfonyl}methyl)imidazolidine-2,4-dione]"
1.4 nM,415 nM,3.5 nM,"C[C@]1(CS(=O)(=O)N2CCc3cc(-c4ccc(Cl)cc4)ccc3C2)NC(=O)NC1=O [Example 2, (5S)-5-({[6-(4-Chlorophenyl)-3,4-dihydroisoquinolin-2(1H)-yl]sulfonyl}methyl)-5-methylimidazolidine-2,4-dione]"
7 nM,1990 nM,8.3 nM,"C[C@]1(CS(=O)(=O)N2CCc3cc(-c4ccc(Cl)cc4)ncc3C2)NC(=O)NC1=O [Example 5, (5S)-5-({[6-(4-Chlorophenyl)-3,4-dihydro-2,7-naphthyridin-2(1H)-yl]sulfonyl}methyl)-5-methylimidazolidine-2,4-dione]"
